# According to patent US8501752B2, “Methods for treating cancer and other pathological proliferating disorders by inhibiting mitosis using pyrrolo[2,3-d]pyrimidines” (Duquesne University of the Holy Ghost, priority 2005, dated 2013):
# Legend:
# MDA-N = test: NCI IVCLSP growth inhibition (SRB), MDA-N; format: cell-based, human; details: 48 h drug incubation
# Procedure: (§1) FIG. 1 presents nine compounds that were tested using the National Cancer Institute (NCI) 60 human tumor cell lines. The cells lines, which represent leukemia, melanoma, and cancers of the lung, colon, brain, ovary, breast, prostate, and kidney, are listed in Table 1.
# (§2) Compounds 1-9 were tested according to the NCI Developmental Therapeutics Program (DTP) In Vitro Cell Line Screening Project (IVCLSP). […] Methodology for testing under the IVCLSP is as follows: The human tumor cell lines of the cancer screening panel are grown in RPMI 1640 medium containing 5% fetal bovine serum and 2 mM L-glutamine. […]
# (§3) Following drug addition, the plates are incubated for an additional 48 h at 37° C., 5% CO2, 95% air, and 100% relative humidity. […] Bound stain is subsequently solubilized with 10 mM trizma base, and the absorbance is read on an automated plate reader at a wavelength of 515 nm. […] Using the seven absorbance measurements [time zero, (Tz), control growth, (C), and test growth in the presence of drug at the five concentration levels (Ti)], the percentage growth is calculated at each of the drug concentrations levels. Percentage growth inhibition is calculated as: [(Ti−Tz)/(C−Tz)]×100 for concentrations for which Ti>/=Tz [(Ti−Tz)/Tz]×100 for concentrations for which Ti<Tz.
# (§4) Three dose response parameters are calculated for each experimental agent. […]
# [1] = system: T24 human bladder carcinoma cells; test: Cytotoxicity, T24 cells; format: cell-based; details: mean ± SEM for 3 experiments
# 786-0 = test: NCI IVCLSP growth inhibition (SRB), 786-0; format: cell-based, human; details: 48 h drug incubation
# Procedure: as §1, §2, §3, §4
# HL-60(TB) = test: NCI IVCLSP growth inhibition (SRB), HL-60(TB); format: cell-based, human; details: 48 h drug incubation
# Procedure: as §1, §2, §3, §4
# SK-MEL-2 = test: NCI IVCLSP growth inhibition (SRB), SK-MEL-2; format: cell-based, human; details: 48 h drug incubation
# Procedure: as §1, §2, §3, §4
# HCT-116 = test: NCI IVCLSP growth inhibition (SRB), HCT-116; format: cell-based, human; details: 48 h drug incubation
# Procedure: as §1, §2, §3, §4
# SF-295 = test: NCI IVCLSP growth inhibition (SRB), SF-295; format: cell-based, human; details: 48 h drug incubation
# Procedure: as §1, §2, §3, §4
# A498 = test: NCI IVCLSP growth inhibition (SRB), A498; format: cell-based, human; details: A498; 48 h drug incubation, SRB
# Procedure: as §1, §2, §3, §4
# NCI-H460 = test: NCI IVCLSP growth inhibition (SRB), NCI-H460; format: cell-based, human; details: 48 h drug incubation
# Procedure: as §1, §2, §3, §4
# DU-145 = test: NCI IVCLSP growth inhibition (SRB), DU-145; format: cell-based, human; details: 48 h drug incubation
# Procedure: as §1, §2, §3, §4
# P-glycoprotein = target: T1, P-glycoprotein (Homo sapiens, UniProt P08183); test: P-glycoprotein antagonism: sensitivity of NCI/ADR cells to vinblastine; format: cell-based; details: absence or presence of 50 nM vinblastine
# T1 construct: NCI/ADR cells that overexpress P-glycoprotein; endogenous in cells; host or cells: NCI/ADR cells
# Source text: To determine if this is due to inhibition of drug transport activity by these proteins, the effects of these compounds on P-glycoprotein were further characterized. The effects of the compounds on the sensitivity of NCI/ADR cells to vinblastine and of MCF-7/VP cells to vincristine were examined to evaluate antagonism of P-glycoprotein and MRP1, respectively. FIGS. 4a-b present graphs of antagonism score versus concentration for P-glycoprotein and MRP1, respectively.
# The Pgp antagonism score is calculated as the percentage survival of cells in the absence of vinblastine/percentage survival in the presence of vinblastine. […] The MRP1 antagonism score is calculated as the percentage survival of cells in the absence of vincristine/percentage survival in the presence of vincristine. […] Concentrations of Compounds 1-5 above their IC50 toward MCF-7 cells are not indicated. Data for one of three similar experiments is shown.
# T1 sequence (P08183 whole entry): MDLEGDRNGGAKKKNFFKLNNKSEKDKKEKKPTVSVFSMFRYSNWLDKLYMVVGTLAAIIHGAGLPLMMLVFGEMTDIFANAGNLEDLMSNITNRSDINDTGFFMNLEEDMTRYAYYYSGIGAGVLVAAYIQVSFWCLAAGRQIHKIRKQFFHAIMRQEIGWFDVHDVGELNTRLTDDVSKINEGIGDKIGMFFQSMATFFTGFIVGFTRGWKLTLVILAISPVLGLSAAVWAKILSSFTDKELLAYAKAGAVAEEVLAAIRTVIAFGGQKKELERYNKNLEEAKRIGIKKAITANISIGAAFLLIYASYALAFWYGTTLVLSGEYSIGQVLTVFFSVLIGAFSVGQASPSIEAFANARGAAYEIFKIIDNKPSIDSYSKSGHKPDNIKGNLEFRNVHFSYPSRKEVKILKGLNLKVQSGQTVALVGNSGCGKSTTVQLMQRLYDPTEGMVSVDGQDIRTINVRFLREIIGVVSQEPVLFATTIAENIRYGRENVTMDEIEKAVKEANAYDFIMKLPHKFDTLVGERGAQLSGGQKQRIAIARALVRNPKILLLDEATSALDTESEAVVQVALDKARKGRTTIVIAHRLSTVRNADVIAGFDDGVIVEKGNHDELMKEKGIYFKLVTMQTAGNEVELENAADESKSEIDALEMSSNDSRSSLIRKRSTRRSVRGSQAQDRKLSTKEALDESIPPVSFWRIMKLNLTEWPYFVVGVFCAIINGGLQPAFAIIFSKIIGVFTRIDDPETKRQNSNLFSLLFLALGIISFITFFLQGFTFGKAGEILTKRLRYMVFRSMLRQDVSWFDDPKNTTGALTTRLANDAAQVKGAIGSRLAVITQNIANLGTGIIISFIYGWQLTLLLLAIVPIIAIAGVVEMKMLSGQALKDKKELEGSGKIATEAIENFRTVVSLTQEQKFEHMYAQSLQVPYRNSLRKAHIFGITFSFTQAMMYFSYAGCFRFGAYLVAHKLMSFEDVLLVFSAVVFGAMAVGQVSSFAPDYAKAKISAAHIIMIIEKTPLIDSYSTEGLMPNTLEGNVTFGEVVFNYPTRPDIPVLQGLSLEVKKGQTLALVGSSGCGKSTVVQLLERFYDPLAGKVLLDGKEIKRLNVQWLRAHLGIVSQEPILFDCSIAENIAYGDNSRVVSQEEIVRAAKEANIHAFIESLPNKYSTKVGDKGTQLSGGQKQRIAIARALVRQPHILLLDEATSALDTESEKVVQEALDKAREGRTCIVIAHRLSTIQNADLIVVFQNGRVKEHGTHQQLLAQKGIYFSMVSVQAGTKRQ
compound,measurement,setting,value
COc1cc(CCc2cn(Cc3ccccc3)c3nc(N)nc(C)c23)cc(OC)c1OC [Compound 1],GI50,MDA-N,< 10 nM
same,IC50,[1],280 ± 100 nM
same,GI50,786-0,254 nM
same,GI50,HL-60(TB),64.7 nM
same,GI50,SK-MEL-2,381 nM
same,GI50,HCT-116,286 nM
same,GI50,SF-295,41.8 nM
same,GI50,A498,136 nM
same,GI50,NCI-H460,162 nM
same,GI50,DU-145,224 nM
same,effect on P-glycoprotein-mediated resistance (in words),P-glycoprotein,no affect on P-glycoprotein at doses below its IC50
